Source: ChEMBL document CHEMBL1649156, “Antianaerobic activity of sulopenem compared to six other agents” (2009)
Values after ≈ are worked out from the molar mass of the structure shown.

Tests used:
Format in all cases: functional
[1] = tested on: Prevotella salivae; test: Antimicrobial activity in Prevotella salivae by CLSI agar dilution method; conditions: Segatella salivae
[2] = tested on: Fusobacterium nucleatum; test: Antimicrobial activity in Fusobacterium nucleatum by CLSI agar dilution method
[3] = tested on: Finegoldia magna; test: Antimicrobial activity in Finegoldia magna by CLSI agar dilution method
[4] = tested on: Parabacteroides distasonis; test: Antimicrobial activity in Bacteroides distasonis by CLSI agar dilution method
[5] = tested on: Bacteroides thetaiotaomicron; test: Antimicrobial activity in Bacteroides thetaiotaomicron by CLSI agar dilution method
[6] = tested on: Peptoniphilus asaccharolyticus; test: Antimicrobial activity in Peptoniphilus asaccharolyticus by CLSI agar dilution method
[7] = tested on: Hoylesella oralis; test: Antimicrobial activity in Prevotella oralis group by CLSI agar dilution method
[8] = tested on: Prevotella veroralis; test: Antimicrobial activity in Prevotella veroralis by CLSI agar dilution method
[9] = tested on: Fusobacterium necrophorum; test: Antimicrobial activity in Fusobacterium necrophorum by CLSI agar dilution method
[10] = tested on: Bacteroides stercoris; test: Antimicrobial activity in Bacteroides stercoris by CLSI agar dilution method
[11] = tested on: Prevotella corporis; test: Antimicrobial activity in Prevotella corporis by CLSI agar dilution method
[12] = tested on: Bacteroides ovatus; test: Antimicrobial activity in Bacteroides ovatus by CLSI agar dilution method
[13] = tested on: Parvimonas micra; test: Antimicrobial activity in Micromonas micros by CLSI agar dilution method
[14] = tested on: Clostridioides difficile; test: Antimicrobial activity in Clostridium difficile by CLSI agar dilution method
[15] = tested on: Prevotella nigrescens; test: Antimicrobial activity in Prevotella nigrescens by CLSI agar dilution method
[16] = tested on: Phocaeicola vulgatus; test: Antimicrobial activity in Bacteroides vulgatus by CLSI agar dilution method
[17] = tested on: Paeniclostridium sordellii; test: Antimicrobial activity in Clostridium sordellii by CLSI agar dilution method; conditions: Paraclostridium sordellii
[18] = tested on: Anaerococcus tetradius; test: Antimicrobial activity in Anaerococcus tetradius by CLSI agar dilution method
[19] = tested on: Prevotella disiens; test: Antimicrobial activity in Prevotella disiens by CLSI agar dilution method
[20] = tested on: Prevotella denticola; test: Antimicrobial activity in Prevotella denticola by CLSI agar dilution method
[21] = tested on: Actinomyces; test: Antimicrobial activity in Actinomyces by CLSI agar dilution method
[22] = tested on: Paraclostridium bifermentans; test: Antimicrobial activity in Clostridium bifermentans by CLSI agar dilution method
[23] = tested on: Hoylesella loescheii; test: Antimicrobial activity in Prevotella loescheii by CLSI agar dilution method
[24] = tested on: Bacteroides fragilis; test: Antimicrobial activity in Bacteroides fragilis by CLSI agar dilution method
[25] = tested on: Prevotella sp.; test: Antimicrobial activity in Prevotella sp.by CLSI agar dilution method
[26] = tested on: Fusobacterium mortiferum; test: Antimicrobial activity in Fusobacterium mortiferum by CLSI agar dilution method
[27] = tested on: [Clostridium] innocuum; test: Antimicrobial activity in Clostridium innocuum by CLSI agar dilution method
[28] = tested on: Lactobacillus; test: Antimicrobial activity in Lactobacillus by CLSI agar dilution method
[29] = tested on: Clostridium butyricum; test: Antimicrobial activity in Clostridium butyricum by CLSI agar dilution method
[30] = tested on: Eggerthella lenta; test: Antimicrobial activity in Eggerthella lenta by CLSI agar dilution method
[31] = tested on: Prevotella intermedia; test: Antimicrobial activity in Prevotella intermedia by CLSI agar dilution method
[32] = tested on: Prevotella buccae; test: Antimicrobial activity in Prevotella buccae by CLSI agar dilution method; conditions: Segatella buccae
[33] = tested on: Clostridium cadaveris; test: Antimicrobial activity in Clostridium cadaveris by CLSI agar dilution method
[34] = tested on: Fusobacterium varium; test: Antimicrobial activity in Fusobacterium varium by CLSI agar dilution method
[35] = tested on: Bacteroides uniformis; test: Antimicrobial activity in Bacteroides uniformis by CLSI agar dilution method
[36] = tested on: Tissierella praeacuta; test: Antimicrobial activity in Clostridium hastiforme by CLSI agar dilution method
[37] = tested on: Thomasclavelia ramosa; test: Antimicrobial activity in Clostridium ramosum by CLSI agar dilution method
[38] = tested on: Prevotella melaninogenica; test: Antimicrobial activity in Prevotella melaninogenica by CLSI agar dilution method
[39] = tested on: Porphyromonas gingivalis; test: Antimicrobial activity in Porphyromonas gingivalis by CLSI agar dilution method
[40] = tested on: Enterocloster clostridioformis; test: Antimicrobial activity in Clostridium clostridioforme by CLSI agar dilution method
[41] = tested on: Clostridium perfringens; test: Antimicrobial activity in Clostridium perfringens by CLSI agar dilution method
[42] = tested on: Clostridium tertium; test: Antimicrobial activity in Clostridium tertium by CLSI agar dilution method
[43] = tested on: Porphyromonas asaccharolytica; test: Antimicrobial activity in Porphyromonas asaccharolytica by CLSI agar dilution method
[44] = tested on: Peptostreptococcus anaerobius; test: Antimicrobial activity in Peptostreptococcus anaerobius by CLSI agar dilution method
[45] = tested on: Clostridium sp.; test: Antimicrobial activity in Clostridium sp. by CLSI agar dilution method
[46] = tested on: Bifidobacterium; test: Antimicrobial activity in Bifidobacterium by CLSI agar dilution method
[47] = tested on: Prevotella bergensis; test: Antimicrobial activity in Prevotella bergensis by CLSI agar dilution method; conditions: Hallella bergensis
[48] = tested on: Anaerococcus prevotii; test: Antimicrobial activity in Anaerococcus prevotii by CLSI agar dilution method
[49] = tested on: Prevotella baroniae; test: Antimicrobial activity in Prevotella baroniae by CLSI agar dilution method; conditions: Segatella baroniae
[50] = tested on: Prevotella bivia; test: Antimicrobial activity in Prevotella bivia by CLSI agar dilution method
[51] = tested on: Cutibacterium acnes; test: Antimicrobial activity in Propionibacterium acnes by CLSI agar dilution method

## Cc1ncc([N+](=O)[O-])n1CCO [METRONIDAZOLE]
[1]
  MIC: ≤ 0.125 µg/mL
[2]
  MIC: ≤ 0.125 µg/mL
  MIC50: ≤ 0.125 µg/mL
  MIC90: 0.5 µg/mL (≈ 2.92 µM)
[3]
  MIC50: 0.5 µg/mL (≈ 2.92 µM)
  MIC90: 1 µg/mL (≈ 5.84 µM)
[4]
  MIC50: 1 µg/mL (≈ 5.84 µM)
  MIC90: 1 µg/mL (≈ 5.84 µM)
[5]
  MIC: 1 µg/mL (≈ 5.84 µM)
  MIC50: 1 µg/mL (≈ 5.84 µM)
  MIC90: 2 µg/mL (≈ 11.7 µM)
[6]
  MIC: ≤ 0.125 µg/mL
  MIC50: 1 µg/mL (≈ 5.84 µM)
[7]
  MIC: ≤ 0.125 µg/mL
[8]
  MIC: 0.25 µg/mL (≈ 1.46 µM)
[9]
  MIC: ≤ 0.125 µg/mL
  MIC50: 0.25 µg/mL (≈ 1.46 µM)
[10]
  MIC: 1 µg/mL (≈ 5.84 µM)
  MIC50: 1 µg/mL (≈ 5.84 µM)
[11]
  MIC: ≤ 0.125 µg/mL
  MIC50: 0.5 µg/mL (≈ 2.92 µM)
[12]
  MIC50: 1 µg/mL (≈ 5.84 µM)
  MIC90: 1 µg/mL (≈ 5.84 µM)
[13]
  MIC50: 0.25 µg/mL (≈ 1.46 µM)
  MIC90: 0.5 µg/mL (≈ 2.92 µM)
[14]
  MIC50: 0.5 µg/mL (≈ 2.92 µM)
  MIC90: 0.5 µg/mL (≈ 2.92 µM)
[15]
  MIC50: 0.5 µg/mL (≈ 2.92 µM)
  MIC90: 1 µg/mL (≈ 5.84 µM)
[16]
  MIC50: 0.5 µg/mL (≈ 2.92 µM)
  MIC90: 1 µg/mL (≈ 5.84 µM)
[17]
  MIC: 1 µg/mL (≈ 5.84 µM)
[18]
  MIC50: 1 µg/mL (≈ 5.84 µM)
  MIC90: 1 µg/mL (≈ 5.84 µM)
[19]
  MIC: 1 µg/mL (≈ 5.84 µM)
  MIC50: 1 µg/mL (≈ 5.84 µM)
[20]
  MIC50: 0.5 µg/mL (≈ 2.92 µM)
  MIC90: 1 µg/mL (≈ 5.84 µM)
[21]
  MIC: > 1 µg/mL
  MIC50: > 16 µg/mL
[22]
  MIC: 0.25 µg/mL (≈ 1.46 µM)
[23]
  MIC: 0.5 µg/mL (≈ 2.92 µM)
[24]
  MIC50: 1 µg/mL (≈ 5.84 µM)
  MIC90: 1 µg/mL (≈ 5.84 µM)
[25]
  MIC: 0.5 µg/mL (≈ 2.92 µM)
[26]
  MIC50: 0.25 µg/mL (≈ 1.46 µM)
  MIC90: 0.5 µg/mL (≈ 2.92 µM)
[27]
  MIC: ≤ 0.125 µg/mL
[28]
  MIC: > 16 µg/mL
  MIC50: > 16 µg/mL
  MIC90: 16 µg/mL (≈ 93.5 µM)
[29]
  MIC: ≤ 0.125 µg/mL
[30]
  MIC50: 0.5 µg/mL (≈ 2.92 µM)
  MIC90: 0.5 µg/mL (≈ 2.92 µM)
[31]
  MIC50: 0.5 µg/mL (≈ 2.92 µM)
  MIC90: 1 µg/mL (≈ 5.84 µM)
[32]
  MIC50: 1 µg/mL (≈ 5.84 µM)
  MIC90: 2 µg/mL (≈ 11.7 µM)
[33]
  MIC: ≤ 0.125 µg/mL
[34]
  MIC50: 0.25 µg/mL (≈ 1.46 µM)
  MIC90: 0.5 µg/mL (≈ 2.92 µM)
[35]
  MIC: 0.5 µg/mL (≈ 2.92 µM)
  MIC50: 0.5 µg/mL (≈ 2.92 µM)
[36]
  MIC: 0.25 µg/mL (≈ 1.46 µM)
[37]
  MIC: 1 µg/mL (≈ 5.84 µM)
[38]
  MIC50: 0.5 µg/mL (≈ 2.92 µM)
  MIC90: 1 µg/mL (≈ 5.84 µM)
[39]
  MIC: ≤ 0.125 µg/mL
[40]
  MIC: ≤ 0.125 µg/mL
[41]
  MIC50: 1 µg/mL (≈ 5.84 µM)
  MIC90: 1 µg/mL (≈ 5.84 µM)
[42]
  MIC: 0.5 µg/mL (≈ 2.92 µM)
  MIC50: 1 µg/mL (≈ 5.84 µM)
[43]
  MIC: ≤ 0.125 µg/mL
[44]
  MIC50: 0.5 µg/mL (≈ 2.92 µM)
  MIC90: 1 µg/mL (≈ 5.84 µM)
[45]
  MIC50: 1 µg/mL (≈ 5.84 µM)
  MIC90: 1 µg/mL (≈ 5.84 µM)
[46]
  MIC50: > 16 µg/mL
  MIC90: > 16 µg/mL
[47]
  MIC: 0.5 µg/mL (≈ 2.92 µM)
[48]
  MIC: 1 µg/mL (≈ 5.84 µM)
[49]
  MIC: 0.5 µg/mL (≈ 2.92 µM)
[50]
  MIC50: 2 µg/mL (≈ 11.7 µM)
  MIC90: 4 µg/mL (≈ 23.4 µM)
[51]
  MIC: > 16 µg/mL
  MIC50: > 16 µg/mL
  MIC90: > 16 µg/mL
